{"source": "patent US10781224B2", "about": "“Bis(oxymethyl)phosphinic acid and biogenic metal salts thereof as regulators of plant growth and development” (priority 2016, dated 2020)", "tested_on": "winter wheat (Vershin variety)", "experiment": "Winter wheat seed treatment with BHMPA salts: germinating power (length and mass of roots and sprouts)", "assay_type": "in vivo", "in_short": "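Seeds (50 per Petri dish on two layers of filter paper) soaked 1 h in BHMPA or its Ca, Mg, Na, Co, Mn, Cu or Zn salts at 1·10^−6-1·10^−12%, with water controls. Germination energy read on day 4, germination on day 8 (wheat) or day 7 (rice, corn), as % means of four replicates. Germinating power taken as root and sprout length plus wet and dry mass per 100 seedlings.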", "key": {"[1]": {"settings": "comparative study, 1·10^−11% solution"}}, "data": [{"smiles": "O=P([O-])(CO)CO.O=P([O-])(CO)CO.[Mg+2]", "note": "[Mg-salt, Magnesium BHMPA Salt]", "values": [{"measurement": "Length, root", "setting": "1·10^−6% solution", "value": 9.2, "unit": "cm"}, {"measurement": "Length, root, + % to control", "setting": "1·10^−6% solution", "value": "−1", "unit": "%"}, {"measurement": "Length, sprout", "setting": "1·10^−6% solution", "value": 7.1, "unit": "cm"}, {"measurement": "Length, sprout, + % to control", "setting": "1·10^−6% solution", "value": "−1", "unit": "%"}, {"measurement": "Mass, dry, root", "setting": "1·10^−6% solution", "value": 0.57, "unit": "g/100 plantlings"}, {"measurement": "Mass, dry, root, + % to control", "setting": "1·10^−6% solution", "value": "−2", "unit": "%"}, {"measurement": "Mass, dry, sprout", "setting": "1·10^−6% solution", "value": 0.65, "unit": "g/100 plantlings"}, {"measurement": "Mass, dry, sprout, + % to control", "setting": "1·10^−6% solution", "value": "−15", "unit": "%"}, {"measurement": "Mass, wet, root", "setting": "1·10^−6% solution", "value": 2.55, "unit": "g/100 plantlings"}, {"measurement": "Mass, wet, root, + % to control", "setting": "1·10^−6% solution", "value": "−1", "unit": "%"}, {"measurement": "Mass, wet, sprout", "setting": "1·10^−6% solution", "value": 5.45, "unit": "g/100 plantlings"}, {"measurement": "Mass, wet, sprout, + % to control", "setting": "1·10^−6% solution", "value": "−2.5", "unit": "%"}, {"measurement": "germinating power results vs control", "setting": "1·10^−6% solution", "value": "lower than those of the control"}, {"measurement": "Length, root", "setting": "1·10^−7% solution", "value": 10.0, "unit": "cm"}, {"measurement": "Length, root, + % to control", "setting": "1·10^−7% solution", "value": 7.5, "unit": "%"}, {"measurement": "Length, sprout", "setting": "1·10^−7% solution", "value": 7.2, "unit": "cm"}, {"measurement": "Length, sprout, + % to control", "setting": "1·10^−7% solution", "value": 0, "unit": "%"}, {"measurement": "Mass, dry, root", "setting": "1·10^−7% solution", "value": 0.61, "unit": "g/100 plantlings"}, {"measurement": "Mass, dry, root, + % to control", "setting": "1·10^−7% solution", "value": 5, "unit": "%"}, {"measurement": "Mass, dry, sprout", "setting": "1·10^−7% solution", "value": 0.79, "unit": "g/100 plantlings"}, {"measurement": "Mass, dry, sprout, + % to control", "setting": "1·10^−7% solution", "value": 2.6, "unit": "%"}, {"measurement": "Mass, wet, root", "setting": "1·10^−7% solution", "value": 2.68, "unit": "g/100 plantlings"}, {"measurement": "Mass, wet, root, + % to control", "setting": "1·10^−7% solution", "value": 3, "unit": "%"}, {"measurement": "Mass, wet, sprout", "setting": "1·10^−7% solution", "value": 5.63, "unit": "g/100 plantlings"}, {"measurement": "Mass, wet, sprout, + % to control", "setting": "1·10^−7% solution", "value": 0.7, "unit": "%"}, {"measurement": "Length, root", "setting": "1·10^−8% solution", "value": 10.0, "unit": "cm"}, {"measurement": "Length, root, + % to control", "setting": "1·10^−8% solution", "value": 7.5, "unit": "%"}, {"measurement": "Length, sprout", "setting": "1·10^−8% solution", "value": 7.4, "unit": "cm"}, {"measurement": "Length, sprout, + % to control", "setting": "1·10^−8% solution", "value": 3, "unit": "%"}, {"measurement": "Mass, dry, root", "setting": "1·10^−8% solution", "value": 0.62, "unit": "g/100 plantlings"}, {"measurement": "Mass, dry, root, + % to control", "setting": "1·10^−8% solution", "value": 7, "unit": "%"}, {"measurement": "Mass, dry, sprout", "setting": "1·10^−8% solution", "value": 0.80, "unit": "g/100 plantlings"}, {"measurement": "Mass, dry, sprout, + % to control", "setting": "1·10^−8% solution", "value": 4, "unit": "%"}, {"measurement": "Mass, wet, root", "setting": "1·10^−8% solution", "value": 2.97, "unit": "g/100 plantlings"}, {"measurement": "Mass, wet, root, + % to control", "setting": "1·10^−8% solution", "value": 15.5, "unit": "%"}, {"measurement": "Mass, wet, sprout", "setting": "1·10^−8% solution", "value": 5.79, "unit": "g/100 plantlings"}, {"measurement": "Mass, wet, sprout, + % to control", "setting": "1·10^−8% solution", "value": 3.6, "unit": "%"}, {"measurement": "Length, root", "setting": "1·10^−9% solution", "value": 10.9, "unit": "cm"}, {"measurement": "Length, root, + % to control", "setting": "1·10^−9% solution", "value": 17, "unit": "%"}, {"measurement": "Length, sprout", "setting": "1·10^−9% solution", "value": 7.5, "unit": "cm"}, {"measurement": "Length, sprout, + % to control", "setting": "1·10^−9% solution", "value": 4, "unit": "%"}, {"measurement": "Mass, dry, root", "setting": "1·10^−9% solution", "value": 0.63, "unit": "g/100 plantlings"}, {"measurement": "Mass, dry, root, + % to control", "setting": "1·10^−9% solution", "value": 8.6, "unit": "%"}, {"measurement": "Mass, dry, sprout", "setting": "1·10^−9% solution", "value": 0.81, "unit": "g/100 plantlings"}, {"measurement": "Mass, dry, sprout, + % to control", "setting": "1·10^−9% solution", "value": 5, "unit": "%"}, {"measurement": "Mass, wet, root", "setting": "1·10^−9% solution", "value": 2.98, "unit": "g/100 plantlings"}, {"measurement": "Mass, wet, root, + % to control", "setting": "1·10^−9% solution", "value": 16, "unit": "%"}, {"measurement": "Mass, wet, sprout", "setting": "1·10^−9% solution", "value": 5.81, "unit": "g/100 plantlings"}, {"measurement": "Mass, wet, sprout, + % to control", "setting": "1·10^−9% solution", "value": 4, "unit": "%"}, {"measurement": "Length, root", "setting": "1·10^−10% solution", "value": 11.3, "unit": "cm"}, {"measurement": "Length, root, + % to control", "setting": "1·10^−10% solution", "value": 21.5, "unit": "%"}, {"measurement": "Length, sprout", "setting": "1·10^−10% solution", "value": 7.5, "unit": "cm"}, {"measurement": "Length, sprout, + % to control", "setting": "1·10^−10% solution", "value": 4, "unit": "%"}, {"measurement": "Mass, dry, root", "setting": "1·10^−10% solution", "value": 0.66, "unit": "g/100 plantlings"}, {"measurement": "Mass, dry, root, + % to control", "setting": "1·10^−10% solution", "value": 24, "unit": "%"}, {"measurement": "Mass, dry, sprout", "setting": "1·10^−10% solution", "value": 0.83, "unit": "g/100 plantlings"}, {"measurement": "Mass, dry, sprout, + % to control", "setting": "1·10^−10% solution", "value": 8, "unit": "%"}, {"measurement": "Mass, wet, root", "setting": "1·10^−10% solution", "value": 2.94, "unit": "g/100 plantlings"}, {"measurement": "Mass, wet, root, + % to control", "setting": "1·10^−10% solution", "value": 14, "unit": "%"}, {"measurement": "Mass, wet, sprout", "setting": "1·10^−10% solution", "value": 5.84, "unit": "g/100 plantlings"}, {"measurement": "Mass, wet, sprout, + % to control", "setting": "1·10^−10% solution", "value": 4.5, "unit": "%"}, {"measurement": "Length, root", "setting": "1·10^−11% solution", "value": 12.2, "unit": "cm"}, {"measurement": "Length, root, + % to control", "setting": "1·10^−11% solution", "value": 31, "unit": "%"}, {"measurement": "Length, sprout", "setting": "1·10^−11% solution", "value": 7.7, "unit": "cm"}, {"measurement": "Length, sprout, + % to control", "setting": "1·10^−11% solution", "value": 7, "unit": "%"}, {"measurement": "Mass, dry, root", "setting": "1·10^−11% solution", "value": 0.74, "unit": "g/100 plantlings"}, {"measurement": "Mass, dry, root, + % to control", "setting": "1·10^−11% solution", "value": 27.5, "unit": "%"}, {"measurement": "Mass, dry, sprout", "setting": "1·10^−11% solution", "value": 1.07, "unit": "g/100 plantlings"}, {"measurement": "Mass, dry, sprout, + % to control", "setting": "1·10^−11% solution", "value": 39, "unit": "%"}, {"measurement": "Mass, wet, root", "setting": "1·10^−11% solution", "value": 3.41, "unit": "g/100 plantlings"}, {"measurement": "Mass, wet, root, + % to control", "setting": "1·10^−11% solution", "value": 33, "unit": "%"}, {"measurement": "Mass, wet, sprout", "setting": "1·10^−11% solution", "value": 5.94, "unit": "g/100 plantlings"}, {"measurement": "Mass, wet, sprout, + % to control", "setting": "1·10^−11% solution", "value": 6, "unit": "%"}, {"measurement": "Length, root", "setting": "1·10^−12% solution", "value": 12.1, "unit": "cm"}, {"measurement": "Length, root, + % to control", "setting": "1·10^−12% solution", "value": 30, "unit": "%"}, {"measurement": "Length, sprout", "setting": "1·10^−12% solution", "value": 7.6, "unit": "cm"}, {"measurement": "Length, sprout, + % to control", "setting": "1·10^−12% solution", "value": 5.5, "unit": "%"}, {"measurement": "Mass, dry, root", "setting": "1·10^−12% solution", "value": 0.69, "unit": "g/100 plantlings"}, {"measurement": "Mass, dry, root, + % to control", "setting": "1·10^−12% solution", "value": 19, "unit": "%"}, {"measurement": "Mass, dry, sprout", "setting": "1·10^−12% solution", "value": 0.84, "unit": "g/100 plantlings"}, {"measurement": "Mass, dry, sprout, + % to control", "setting": "1·10^−12% solution", "value": 9, "unit": "%"}, {"measurement": "Mass, wet, root", "setting": "1·10^−12% solution", "value": 3.11, "unit": "g/100 plantlings"}, {"measurement": "Mass, wet, root, + % to control", "setting": "1·10^−12% solution", "value": 21, "unit": "%"}, {"measurement": "Mass, wet, sprout", "setting": "1·10^−12% solution", "value": 5.86, "unit": "g/100 plantlings"}, {"measurement": "Mass, wet, sprout, + % to control", "setting": "1·10^−12% solution", "value": 5, "unit": "%"}, {"measurement": "Length, root", "setting": "[1]", "value": 10.0, "unit": "cm"}, {"measurement": "Length, root, + % to control", "setting": "[1]", "value": 15, "unit": "%"}, {"measurement": "Length, sprout", "setting": "[1]", "value": 7.2, "unit": "cm"}, {"measurement": "Length, sprout, + % to control", "setting": "[1]", "value": 16, "unit": "%"}, {"measurement": "Mass, dry, root", "setting": "[1]", "value": 0.69, "unit": "g/100 plantlings"}, {"measurement": "Mass, dry, root, + % to control", "setting": "[1]", "value": 11, "unit": "%"}, {"measurement": "Mass, dry, sprout", "setting": "[1]", "value": 0.57, "unit": "g/100 plantlings"}, {"measurement": "Mass, dry, sprout, + % to control", "setting": "[1]", "value": 12, "unit": "%"}, {"measurement": "Mass, wet, root", "setting": "[1]", "value": 5.76, "unit": "g/100 plantlings"}, {"measurement": "Mass, wet, root, + % to control", "setting": "[1]", "value": 59, "unit": "%"}, {"measurement": "Mass, wet, sprout", "setting": "[1]", "value": 5.04, "unit": "g/100 plantlings"}, {"measurement": "Mass, wet, sprout, + % to control", "setting": "[1]", "value": 27, "unit": "%"}]}]}
